Measured values as given in ChEMBL document CHEMBL1127015, “Centrally acting serotonergic and dopaminergic agents. 1. Synthesis and structure-activity relationships of 2,3,3a,4,5,9b-hexahydro-1H-benz[e]indole derivatives” (J Med Chem, 1993).
Several values for one entry are separate records, joined by “and”; a condition that tells them apart may be missing. Identical values can stand only once.

Columns and labels:
Mus musculus [1] = test: Increase in locomotor activity in reserpinized mice following 0.4 umol/kg i.p.; assay type: functional
Mus musculus [2] = test: Antagonism of apomorphine in reserpinized mice when a dose of 38 micro mol/kg is administered intraperitoneally; assay type: functional
Mus musculus [3] = test: Antagonism of apomorphine for 10-20 minutes in reserpinized mice when a dose of 38 micro mol/kg is administered intraperitoneally; assay type: functional
Mus musculus [4] = test: Antagonism of apomorphine for 10-20 minutes in reserpinized mice when a dose of 3.8 micro mol/kg is administered intraperitoneally; assay type: functional
Mus musculus [5] = test: Antagonism of apomorphine effects in reserpinized mice following 0.4 umol/kg i.p.; assay type: functional
Mus musculus [6] = test: Ability to stimulate dopaminergic systems by effect on locomotor activity in reserpinized mice when a dose of 38 micro mol/kg is administered intraperitoneally; assay type: functional
Mus musculus [7] = test: Ability to stimulate dopaminergic systems by effect on locomotor activity in reserpinized mice when a dose of 3.8 micro mol/kg is administered intraperitoneally; assay type: functional
D(2) dopamine receptor [8] = molecular target: T1, D(2) dopamine receptor (Homo sapiens, UniProt P14416); test: Binding affinity against [3H]U-86,170-labeled dopamine receptor D2 in cloned CHO cells; assay type: cell-based
Mus musculus [9] = test: Antagonism of apomorphine effects for 10-20 minutes in reserpinized mice following 0.4 umol/kg i.p.; assay type: functional
Mus musculus [10] = test: Antagonism of apomorphine for 0-10 minutes in reserpinized mice when a dose of 38 micro mol/kg is administered intraperitoneally; assay type: functional
Mus musculus [11] = test: Antagonism of apomorphine in reserpinized mice when a dose of 3.8 micro mol/kg is administered intraperitoneally; assay type: functional
Mus musculus [12] = test: Antagonism of apomorphine for 0-10 minutes in reserpinized mice when a dose of 3.8 micro mol/kg is administered intraperitoneally; assay type: functional
D(2) dopamine receptor [13] = molecular target: T1, D(2) dopamine receptor; test: Intrinsic activity from GTP shift using membranes from CHO cells transfected with mammalian dopamine receptor D2.; assay type: cell membranes
Mus musculus [14] = test: Antagonism of apomorphine effects for 0-10 minutes in reserpinized mice following 0.4 umol/kg i.p.; assay type: functional; design: unit not given beside the values
D(2) dopamine receptor [15] = molecular target: T2, D(2) dopamine receptor (Rattus norvegicus, UniProt P61169); test: Binding affinity against [3H]raclopride-labeled dopamine receptor D2 in rat striatum.; assay type: tissue-based
Rattus norvegicus [16] = test: Inhibition of firing rates of dopaminergic neurons in the substantia nigra pars compacta by intravenous injection in rats.; assay type: functional
Mus musculus [17] = test: Antagonism of apomorphine for 10-20 minutes in reserpinized mice when a dose of 3.6 micro mol/kg is administered intraperitoneally; assay type: functional
Mus musculus [18] = test: Antagonism of apomorphine for 0-10 minutes in reserpinized mice when a dose of 3.6 micro mol/kg is administered intraperitoneally; assay type: functional
Felis catus [19] = test: Maximum decrease of arterial blood pressure at sympathetic nerve activity (SND) in anesthetized cat has been observed following 1 mg/kg dose; assay type: functional; design: scale not given: the % may be the effect or the level left
Mus musculus [20] = test: Effective dose on hypothermia in mouse when administered subcutaneously; assay type: functional; details: sc
Mus musculus [21] = test: Ability to stimulate dopaminergic systems by effect on locomotor activity in reserpinized mice when a dose of 3.6 micro mol/kg is administered intraperitoneally; assay type: functional
Rattus norvegicus [22] = species: Rattus norvegicus; test: Effect on the synthesis rates of serotonin (5-HTP accumulation) in the rat ventral limbic brain region at 10.7uMkg. value as percent change from the control; assay type: functional, Limbic system
Mus musculus [23] = test: Ability to stimulate dopaminergic systems by effect on locomotor activity in reserpinized mice when a dose of 36 micro mol/kg is administered intraperitoneally; assay type: functional
Mus musculus [24] = test: Antagonism of apomorphine for 10-20 minutes in reserpinized mice when a dose of 36 micro mol/kg is administered intraperitoneally; assay type: functional
Felis catus [25] = test: Maximum decrease of sympathetic nerve activity (SND) in anesthetized cat has been expressed as percent control; assay type: functional; design: scale not given: the % may be the effect or the level left
Mus musculus [26] = test: Antagonism of apomorphine for 0-10 minutes in reserpinized mice when a dose of 36 micro mol/kg is administered intraperitoneally; assay type: functional
Mus musculus [27] = test: Antagonism of apomorphine in reserpinized mice when a dose of 36 micro mol/kg is administered intraperitoneally; assay type: functional
Rattus norvegicus [28] = species: Rattus norvegicus; test: Effect on the synthesis rates of serotonin (5-HTP accumulation) in the rat ventral limbic brain region at 10.7uMkg.; assay type: functional, Limbic system
Mus musculus [29] = test: Antagonism of apomorphine in reserpinized mice when a dose of 3.6 micro mol/kg is administered intraperitoneally; assay type: functional
Mus musculus [30] = test: Time of effect in the isolation-induced aggression behavioral assay in the mouse when a dose of 36 micro mol/kg is administered perorally; assay type: functional
Mus musculus [31] = test: Time of effect in the face-to-face behavioral assay in the mouse when a dose of 3.6 micro mol/kg is administered perorally; assay type: functional
Mus musculus [32] = test: Maximum decrease in temperature when compound is administered subcutaneously; assay type: functional
Mus musculus [33] = test: Time of effect in the isolation-induced aggression behavioral assay in the mouse when a dose of 0.0 micro mol/kg is administered perorally; assay type: functional
Mus musculus [34] = test: Time of effect in the face-to-face behavioral assay in the mouse when a dose of 36 micro mol/kg is administered perorally; assay type: functional
Mus musculus [35] = test: Time of effect in the face-to-face behavioral assay in the mouse when a dose of 0.0 micro mol/kg is administered perorally; assay type: functional
Mus musculus [36] = test: Time of effect in the face-to-face behavioral assay in the mouse when a dose of 0.4 micro mol/kg is administered perorally; assay type: functional
D(2) dopamine receptor [37] = molecular target: T2, D(2) dopamine receptor; test: Inhibitory concentration against [3H]raclopride-labeled dopamine receptor D2 in rat striatum; assay type: tissue-based
Mus musculus [38] = test: Maximum decrease in temperature when compound is administered through peroral route; assay type: functional
Mus musculus [39] = test: Effective dose on hypothermia in mouse when administered through peroral route; assay type: functional; details: po
Felis catus [40] = species: Felis catus; test: Percent of arterial blood pressure at sympathetic nerve activity (SND) dose value was determined; assay type: functional
Felis catus [41] = test: Effective dose at which the sympathetic nerve activity (SND) has been reduced to 50% of the pretreatment value in anesthetized cat; assay type: functional
Felis catus [42] = test: Maximum decrease of sympathetic nerve activity (SND) in anesthetized cat; assay type: functional; design: scale not given: the % may be the effect or the level left
Mus musculus [43] = test: Antagonism of apomorphine for 0-10 minutes in reserpinized mice when a dose of 3.5 micro mol/kg is administered intraperitoneally; assay type: functional
Mus musculus [44] = test: Ability to stimulate dopaminergic systems by effect on locomotor activity in reserpinized mice when a dose of 3.5 micro mol/kg is administered intraperitoneally; assay type: functional
Mus musculus [45] = test: Antagonism of apomorphine for 10-20 minutes in reserpinized mice when a dose of 3.5 micro mol/kg is administered intraperitoneally; assay type: functional
Mus musculus [46] = test: Antagonism of apomorphine in reserpinized mice when a dose of 3.5 micro mol/kg is administered intraperitoneally; assay type: functional
Mus musculus [47] = test: Antagonism of apomorphine in reserpinized mice when a dose of 35 micro mol/kg is administered intraperitoneally; assay type: functional
Mus musculus [48] = test: Antagonism of apomorphine for 0-10 minutes in reserpinized mice when a dose of 35 micro mol/kg is administered intraperitoneally; assay type: functional
Mus musculus [49] = test: Ability to stimulate dopaminergic systems by effect on locomotor activity in reserpinized mice when a dose of 35 micro mol/kg is administered intraperitoneally; assay type: functional
Mus musculus [50] = test: Antagonism of apomorphine for 10-20 minutes in reserpinized mice when a dose of 35 micro mol/kg is administered intraperitoneally; assay type: functional
[51] = Rattus norvegicus, Substantia nigra pars compacta, iv, read-out: ED50

T2 sequence (P61169 whole entry): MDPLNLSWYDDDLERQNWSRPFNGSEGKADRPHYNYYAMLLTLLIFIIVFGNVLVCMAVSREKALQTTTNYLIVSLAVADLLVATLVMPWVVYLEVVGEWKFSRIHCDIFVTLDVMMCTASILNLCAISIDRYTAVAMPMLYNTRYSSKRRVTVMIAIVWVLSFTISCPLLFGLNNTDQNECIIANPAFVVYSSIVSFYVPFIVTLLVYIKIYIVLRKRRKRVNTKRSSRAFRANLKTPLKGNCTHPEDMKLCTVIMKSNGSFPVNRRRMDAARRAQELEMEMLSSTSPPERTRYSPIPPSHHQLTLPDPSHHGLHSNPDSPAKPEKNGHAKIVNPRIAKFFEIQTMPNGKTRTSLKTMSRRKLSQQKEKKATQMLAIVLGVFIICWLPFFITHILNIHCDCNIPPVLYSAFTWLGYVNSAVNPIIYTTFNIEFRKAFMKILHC
T1 sequence (P14416 whole entry): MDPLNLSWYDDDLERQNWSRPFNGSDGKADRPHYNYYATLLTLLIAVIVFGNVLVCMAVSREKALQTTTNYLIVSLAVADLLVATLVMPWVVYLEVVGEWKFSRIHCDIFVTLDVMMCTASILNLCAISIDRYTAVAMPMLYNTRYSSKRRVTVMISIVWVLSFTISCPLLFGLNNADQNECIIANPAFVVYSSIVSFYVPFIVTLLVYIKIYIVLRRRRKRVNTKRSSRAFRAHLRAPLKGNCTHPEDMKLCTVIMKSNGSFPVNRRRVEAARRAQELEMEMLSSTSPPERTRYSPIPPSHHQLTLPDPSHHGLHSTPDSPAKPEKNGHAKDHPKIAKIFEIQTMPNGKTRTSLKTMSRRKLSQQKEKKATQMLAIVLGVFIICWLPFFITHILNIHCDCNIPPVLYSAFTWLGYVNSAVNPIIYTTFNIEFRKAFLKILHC

## C=CCN1CC[C@@H]2c3c(O)cccc3CC[C@H]21 (racemic)
Mus musculus [1]
  Locomotor activity: 26
Mus musculus [2]
  Locomotor activity: 9
Mus musculus [3]
  Locomotor activity: 33
Mus musculus [4]
  Locomotor activity: 53
Mus musculus [5]
  Locomotor activity: 73
Mus musculus [6]
  Locomotor activity: 1
Mus musculus [7]
  Locomotor activity: 5
D(2) dopamine receptor [8]
  Ki: 25 nM
Mus musculus [9]
  Locomotor activity: 66
Mus musculus [10]
  Locomotor activity: 49
Mus musculus [11]
  Locomotor activity: 5
Mus musculus [12]
  Locomotor activity: 71
D(2) dopamine receptor [13]
  Intrinsic activity: 13%
Mus musculus [14]
  Locomotor activity: 46

## CCCN1CC[C@@H]2c3c(cccc3OC)CC[C@@H]21
D(2) dopamine receptor [15]
  Ki: > 1000 nM

## C=CCN1CC[C@@H]2c3cccc(OC)c3CC[C@@H]21
Rattus norvegicus [16]; [51]
  ED50: > 3.6 µmol/kg

## CN1CCc2cccc3c2[C@H]1Cc1ccc(O)c(O)c1-3 [APOMORPHINE]
Rattus norvegicus [16]; [51]
  ED50: 0.03 µmol/kg

## C=CCN1CCC2c3cccc(OC)c3CC[C@H]21 (mixture of isomers)
Mus musculus [1]
  Locomotor activity: 15
Mus musculus [17]
  Locomotor activity: 59
Mus musculus [5]
  Locomotor activity: 73
Mus musculus [18]
  Locomotor activity: 112
D(2) dopamine receptor [15]
  Ki: 42 nM
Felis catus [19]
  Control: 98%
Mus musculus [20]
  ED50: > 107 µmol/kg
Mus musculus [21]
  Locomotor activity: 9
Rattus norvegicus [22]
  Control: -4%
Mus musculus [23]
  Locomotor activity: 9
Mus musculus [24]
  Locomotor activity: 17
Rattus norvegicus [16]
  ED50: 0.42 µM/kg and 0.88 µM/kg
Mus musculus [9]
  Locomotor activity: 92
Felis catus [25]
  Control: 132%
Mus musculus [26]
  Locomotor activity: 33
Mus musculus [27]
  Locomotor activity: 1
D(2) dopamine receptor [13]
  Intrinsic activity: 0%
Mus musculus [14]
  Locomotor activity: 91
Rattus norvegicus [28]
  Control: 147%
Mus musculus [29]
  Locomotor activity: 27

## COc1cccc2c1CC[C@@H]1[C@@H]2CCN1CC1CC1 (racemic)
D(2) dopamine receptor [15]
  Ki: > 10000 nM

## C=CCN1CCC2c3c(cccc3OC)CC[C@@H]21 (single isomer, unassigned; (+))
Mus musculus [1]
  Locomotor activity: 8
Mus musculus [17]
  Locomotor activity: 77
Mus musculus [5]
  Locomotor activity: 103
Mus musculus [18]
  Locomotor activity: 73
Mus musculus [20]
  ED50: 62 µmol/kg
Mus musculus [30]
  Time: 21 s
Mus musculus [21]
  Locomotor activity: 12
Mus musculus [31]
  Time: 0.6 s
Mus musculus [23]
  Locomotor activity: 18
Mus musculus [24]
  Locomotor activity: 67
Mus musculus [32]
  Max temperature decrease: 3.9
Mus musculus [9]
  Locomotor activity: 92
Mus musculus [33]
  Time: 27 s
Mus musculus [34]
  Time: 1 s
Mus musculus [26]
  Locomotor activity: 54
Mus musculus [35]
  Time: 0.8 s
Mus musculus [27]
  Locomotor activity: 115
D(2) dopamine receptor [13]
  Intrinsic activity: 17%
Mus musculus [14]
  Locomotor activity: 83
Mus musculus [29]
  Locomotor activity: 114
Mus musculus [36]
  Time: 0.9 s

## CCCN1[C@@H]2CCc3cccc(OC)c3C2C[C@@H]1C (mixture of isomers)
Felis catus [19]
  Control: 73%
Mus musculus [20]
  ED50: 14 µmol/kg
D(2) dopamine receptor [37]
  IC50: > 1000 nM
Mus musculus [38]
  Max temperature decrease: 3
Mus musculus [32]
  Max temperature decrease: 6.8
Mus musculus [39]
  ED50: 338 µmol/kg
Felis catus [40]
  BP: 42%
Felis catus [41]
  ED50: 0.17 µmol/kg
Felis catus [42]
  Control: 82%

## C=CCN1CCC2c3cccc(O)c3CC[C@@H]21 (single isomer, unassigned; (+))
Mus musculus [1]
  Locomotor activity: 11
Mus musculus [2]
  Locomotor activity: 62
Mus musculus [3]
  Locomotor activity: 37
Mus musculus [4]
  Locomotor activity: 90
Mus musculus [5]
  Locomotor activity: 79
D(2) dopamine receptor [15]
  Ki: 259 nM
Mus musculus [6]
  Locomotor activity: 17
Mus musculus [7]
  Locomotor activity: 42
Rattus norvegicus [16]; [51]
  ED50: 2.82 µmol/kg
D(2) dopamine receptor [8]
  Ki: 59 nM
Mus musculus [9]
  Locomotor activity: 76
Mus musculus [10]
  Locomotor activity: 20
Mus musculus [11]
  Locomotor activity: 62
Mus musculus [12]
  Locomotor activity: 54
D(2) dopamine receptor [13]
  Intrinsic activity: 50%
Mus musculus [14]
  Locomotor activity: 50

## CCCN1CC[C@@H]2c3cccc(OC)c3CC[C@H]21 (racemic)
Mus musculus [1]
  Locomotor activity: 1
Mus musculus [43]
  Locomotor activity: 64
Mus musculus [5]
  Locomotor activity: 188
Mus musculus [44]
  Locomotor activity: 6
Mus musculus [45]
  Locomotor activity: 98
Mus musculus [20]
  ED50: 34 µmol/kg
Mus musculus [46]
  Locomotor activity: 122
Mus musculus [47]
  Locomotor activity: 53
Mus musculus [32]
  Max temperature decrease: 3.9
Mus musculus [48]
  Locomotor activity: 10
Mus musculus [9]
  Locomotor activity: 123
Mus musculus [49]
  Locomotor activity: 27
Mus musculus [50]
  Locomotor activity: 34
D(2) dopamine receptor [13]
  Intrinsic activity: 0%
Mus musculus [14]
  Locomotor activity: 87
